Experimental data: ChEMBL document CHEMBL1201862, “PubChem BioAssay data set” (2004)
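These data come from cells grown in 96-well plates and exposed to compound for 48 hours at five concentrations. The concentration for 50% growth inhibition is given as GI50.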 Activity calls are given as the source filed them. No stated cut-off is given here; in the data, active = GI50 up to about 1.1 µM and inactive = higher.

How the values were obtained:
Assay in all cases: growth of human tumour cells (NCI), 48 h
HCT-116 = test system: HCT-116
M14 = test system: M14
NCI-H522 = test system: NCI-H522
MDA-MB-435 = test system: MDA-MB-435
SK-MEL-2 = test system: SK-MEL-2
MCF7 = test system: MCF7
CAKI-1 = test system: CAKI-1
ACHN = test system: ACHN
Hs-578T = test system: Hs-578T
DU-145 = test system: DU-145
NCI/ADR-RES = test system: NCI/ADR-RES
MDA-MB-231 = test system: MDA-MB-231
SK-OV-3 = test system: SK-OV-3
T47D = test system: T47D
MDA-N = test system: MDA-N
SF-539 = test system: SF-539
PC-3 = test system: PC-3
Malme-3M = test system: Malme-3M
SNB-78 = test system: SNB-78
DMS-114 = test system: DMS-114

Measured: GI50

C=CCN1C(=O)/C(=C/c2ccc(OC)cc2)NC1=S
inactive: HCT-116 48 µM | M14 53.3 µM | NCI-H522 41.6 µM | MDA-MB-435 57.3 µM | SK-MEL-2 > 100 µM | MCF7 40.9 µM | CAKI-1 > 100 µM | ACHN > 100 µM | Hs-578T > 100 µM | DU-145 > 100 µM | NCI/ADR-RES > 100 µM | MDA-MB-231 > 100 µM | SK-OV-3 > 100 µM | T47D 42.2 µM | MDA-N 33.8 µM | SF-539 > 100 µM | PC-3 84.5 µM

O=[N+]([O-])C(/C=C(\Cl)[N+](=O)[O-])=C1Nc2ccccc2N1
inactive: HCT-116 50.1 µM | M14 60.8 µM | NCI-H522 > 100 µM | MDA-MB-435 42.6 µM | MCF7 39.6 µM | CAKI-1 22.1 µM | ACHN 44.4 µM | Malme-3M 42.2 µM | Hs-578T 48.9 µM | DU-145 > 100 µM | NCI/ADR-RES > 100 µM | MDA-MB-231 36.7 µM | SK-OV-3 42.4 µM | T47D 17.9 µM | MDA-N 59.8 µM | SF-539 35.5 µM | PC-3 46.3 µM

CCOP(=Nc1ccc(N(C)C)cc1)(OCC)OCC
inactive: HCT-116 > 100 µM | M14 > 100 µM | NCI-H522 > 100 µM | MDA-MB-435 > 100 µM | SK-MEL-2 > 100 µM | MCF7 > 100 µM | CAKI-1 > 100 µM | ACHN > 100 µM | Malme-3M > 100 µM | Hs-578T > 100 µM | DU-145 > 100 µM | NCI/ADR-RES > 100 µM | MDA-MB-231 > 100 µM | SK-OV-3 > 100 µM | MDA-N > 100 µM | PC-3 > 100 µM

CCOC(=O)c1cc2c([N+](=O)[O-])c(NC(C)=O)ccc2s1
inactive: HCT-116 87.9 µM | M14 > 100 µM | NCI-H522 34.2 µM | MDA-MB-435 76.4 µM | SK-MEL-2 > 100 µM | MCF7 63 µM | CAKI-1 41.6 µM | ACHN 41.7 µM | Malme-3M 28.2 µM | Hs-578T 37.8 µM | DU-145 49 µM | NCI/ADR-RES 55.2 µM | MDA-MB-231 24.1 µM | SK-OV-3 > 100 µM | T47D 15 µM | MDA-N 81.8 µM | SF-539 > 100 µM | PC-3 33.5 µM

Cc1cccc(/C=C2\CCCc3ccccc3C2=O)c1
inactive: HCT-116 15 µM | M14 17.9 µM | NCI-H522 12.7 µM | MDA-MB-435 17 µM | SK-MEL-2 16.7 µM | MCF7 16.9 µM | CAKI-1 30.4 µM | ACHN 26.5 µM | Malme-3M 18.1 µM | Hs-578T 15.8 µM | DU-145 28.6 µM | NCI/ADR-RES 22.4 µM | MDA-MB-231 18.5 µM | SK-OV-3 62.4 µM | MDA-N 19.8 µM | SF-539 18.7 µM | PC-3 27.2 µM

CSCCC(N)P(C)(=O)O (stereo not drawn)
inactive: HCT-116 > 100 µM | M14 > 100 µM | NCI-H522 > 100 µM | MDA-MB-435 > 22.2 µM | SK-MEL-2 > 100 µM | MCF7 > 100 µM | CAKI-1 > 100 µM | ACHN > 100 µM | Malme-3M > 100 µM | Hs-578T > 100 µM | DU-145 > 100 µM | NCI/ADR-RES > 100 µM | MDA-MB-231 > 100 µM | SK-OV-3 > 100 µM | T47D > 100 µM | MDA-N > 100 µM | SF-539 > 100 µM | PC-3 > 100 µM

O=CN1CCC23CC(O)CCC2C1Cc1cc(Oc2nnnn2-c2ccccc2)cc(O)c13 (stereo not drawn)
inactive: HCT-116 > 100 µM | M14 > 100 µM | NCI-H522 91.4 µM | MDA-MB-435 66.7 µM | SK-MEL-2 81.3 µM | MCF7 54 µM | CAKI-1 > 100 µM | ACHN > 100 µM | Malme-3M > 100 µM | Hs-578T > 100 µM | DU-145 > 100 µM | NCI/ADR-RES > 100 µM | MDA-MB-231 > 100 µM | SK-OV-3 > 100 µM | T47D 79.1 µM | MDA-N > 100 µM | SF-539 > 100 µM | PC-3 > 100 µM

COc1c(Cl)cc(Cl)cc1S(=O)O
inactive: HCT-116 > 100 µM | SNB-78 > 100 µM | M14 > 100 µM | NCI-H522 > 100 µM | SK-MEL-2 > 100 µM | DMS-114 > 100 µM | ACHN > 100 µM | Malme-3M > 100 µM | SK-OV-3 > 100 µM | SF-539 > 100 µM

CN(O)C(=O)CCCC(=O)NCC(C)(C)CNC(=O)CCCC(=O)N(C)O
inactive: M14 > 100 µM | MDA-MB-435 > 100 µM | SK-MEL-2 > 100 µM | MCF7 > 100 µM | CAKI-1 > 100 µM | ACHN > 100 µM | Malme-3M > 100 µM | Hs-578T > 100 µM | DU-145 > 100 µM | NCI/ADR-RES > 100 µM | MDA-MB-231 > 100 µM | SK-OV-3 > 100 µM | T47D > 100 µM | MDA-N > 100 µM | SF-539 > 100 µM | PC-3 > 100 µM

COc1ccc(C2=NN(c3nsc4ccccc34)C(=O)CC2)cc1
inactive: HCT-116 54.2 µM | SNB-78 > 100 µM | M14 > 100 µM | SK-MEL-2 > 100 µM | DMS-114 58.5 µM | ACHN > 100 µM | SF-539 > 100 µM

CC(C)(C)[Si](OC1CCOC1=O)(c1ccccc1)c1ccccc1 (stereo not drawn)
inactive: HCT-116 13.6 µM | SNB-78 32.2 µM | M14 18 µM | NCI-H522 13.8 µM | SK-MEL-2 16.6 µM | ACHN 19.1 µM | Malme-3M 16.5 µM | SK-OV-3 33.9 µM | SF-539 23.4 µM

CC1CC(NC2CCCCC2)=Nc2ccccc2N1Cc1ccccc1 (stereo not drawn)
inactive: HCT-116 4.71 µM | M14 2.04 µM | NCI-H522 3.03 µM | MDA-MB-435 3.38 µM | SK-MEL-2 11.2 µM | MCF7 3.66 µM | CAKI-1 5.46 µM | ACHN 10.4 µM | Malme-3M 1.49 µM | Hs-578T 3.95 µM | DU-145 4.66 µM | NCI/ADR-RES 5.85 µM | MDA-MB-231 4.51 µM | SK-OV-3 11.2 µM | T47D 4.18 µM | MDA-N 3.69 µM | SF-539 5.62 µM | PC-3 5.41 µM

O=C1/C(=C/c2ccccc2)NC(=S)N1CN1CCOCC1
inactive: HCT-116 > 100 µM | M14 > 100 µM | MDA-MB-435 > 100 µM | SK-MEL-2 > 100 µM | MCF7 > 100 µM | ACHN > 100 µM | Malme-3M > 100 µM | Hs-578T > 100 µM | DU-145 > 100 µM | NCI/ADR-RES > 100 µM | MDA-MB-231 > 100 µM | SK-OV-3 > 100 µM | MDA-N > 100 µM | PC-3 > 100 µM

Cc1nc2cccc(F)c2c(=O)n1C1CCCCNC1=O (stereo not drawn)
inactive: HCT-116 > 10 µM | M14 > 10 µM | NCI-H522 > 10 µM | MDA-MB-435 > 10 µM | SK-MEL-2 > 10 µM | MCF7 > 10 µM | CAKI-1 > 10 µM | ACHN > 10 µM | Hs-578T > 10 µM | DU-145 > 10 µM | NCI/ADR-RES > 10 µM | MDA-MB-231 > 10 µM | SK-OV-3 > 10 µM | T47D > 10 µM | MDA-N > 10 µM | SF-539 > 10 µM | PC-3 > 10 µM

COC(=O)C(=O)C(C(C)=O)C(=O)C(=O)Nc1ccc(C)cc1C (stereo not drawn)
inactive: HCT-116 > 100 µM | M14 > 100 µM | NCI-H522 > 100 µM | SK-MEL-2 > 100 µM | DMS-114 > 100 µM | CAKI-1 > 100 µM | ACHN > 100 µM | SK-OV-3 > 100 µM | SF-539 > 100 µM

CC[C@@H]1C[C@@H]2CN3CCc4c([nH]c5ccc(OC)cc45)C(COC(=O)c4ccc(OC)c(OC)c4)(C2)C13
inactive: HCT-116 4.34 µM | SNB-78 19.6 µM | M14 14.9 µM | SK-MEL-2 > 10 µM | DMS-114 11.6 µM | CAKI-1 19.5 µM | ACHN 24.4 µM | Malme-3M > 10 µM | SF-539 18.8 µM

CC(C)CC(NC(=O)OCc1ccccc1)C(=O)NCCCCC(N)C(=O)NC(CCCCNC(=O)C(CC(C)C)NC(=O)OCc1ccccc1)C(=O)NC(CCCCNC(=O)C(CC(C)C)NC(=O)OCc1ccccc1)C(=O)NC(CCCCNC(=O)C(CC(C)C)NC(=O)OCc1ccccc1)C(=O)NC(CCCCNC(=O)C(CC(C)C)NC(=O)OCc1ccccc1)C(=O)NC(CCCCNC(=O)C(CC(C)C)NC(=O)OCc1ccccc1)C(=O)O (stereo not drawn)
inactive: HCT-116 > 100 µM | NCI-H522 > 100 µM | MDA-MB-435 > 100 µM | SK-MEL-2 > 100 µM | MCF7 > 100 µM | ACHN > 100 µM | Malme-3M > 100 µM | DU-145 > 100 µM | MDA-MB-231 > 100 µM | T47D > 100 µM | MDA-N > 100 µM | PC-3 > 100 µM

C=CCn1c(=O)ccn(COCCO)c1=O
inactive: M14 > 100 µM | NCI-H522 > 100 µM | MDA-MB-435 > 100 µM | SK-MEL-2 > 100 µM | MCF7 > 100 µM | CAKI-1 > 100 µM | ACHN > 100 µM | Malme-3M > 100 µM | Hs-578T > 100 µM | DU-145 > 100 µM | NCI/ADR-RES > 100 µM | MDA-MB-231 > 100 µM | T47D > 100 µM | MDA-N > 100 µM | SF-539 > 100 µM | PC-3 > 100 µM
